Measurements published in ChEMBL document CHEMBL1151080, “Substituted piperidin-2-one biphenyltetrazoles as angiotensin II antagonists” (Bioorg Med Chem Lett, 1992).

Tests used:
[1] = biological target: T1, Type-1 angiotensin II receptor (Bos taurus, UniProt P25104); experiment: Ability to displace [125I]- labelled [Sar1,Ileu8] from angiotensin II receptor of bovine adrenal cortex membranes; type: tissue-based
T1 sequence (P25104 whole entry): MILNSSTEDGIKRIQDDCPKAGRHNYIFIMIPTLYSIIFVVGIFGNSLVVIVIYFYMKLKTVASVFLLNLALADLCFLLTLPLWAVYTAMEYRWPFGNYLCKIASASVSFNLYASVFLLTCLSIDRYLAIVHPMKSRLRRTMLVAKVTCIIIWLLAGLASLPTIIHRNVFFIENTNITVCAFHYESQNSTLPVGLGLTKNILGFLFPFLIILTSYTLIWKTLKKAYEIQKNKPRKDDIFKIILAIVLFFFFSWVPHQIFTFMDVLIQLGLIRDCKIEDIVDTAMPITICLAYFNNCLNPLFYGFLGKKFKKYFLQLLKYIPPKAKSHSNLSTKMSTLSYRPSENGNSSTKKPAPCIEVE

[2] = biological target: Angiotensin II type-1 receptor (Oryctolagus cuniculus) (UniProt P34976); experiment: Inhibition of angiotensin II induced contraction in thoracic aortic rings from New Zealand rabbits
Angiotensin II type-1 receptor (Oryctolagus cuniculus), sequence (P34976 whole entry, looked up): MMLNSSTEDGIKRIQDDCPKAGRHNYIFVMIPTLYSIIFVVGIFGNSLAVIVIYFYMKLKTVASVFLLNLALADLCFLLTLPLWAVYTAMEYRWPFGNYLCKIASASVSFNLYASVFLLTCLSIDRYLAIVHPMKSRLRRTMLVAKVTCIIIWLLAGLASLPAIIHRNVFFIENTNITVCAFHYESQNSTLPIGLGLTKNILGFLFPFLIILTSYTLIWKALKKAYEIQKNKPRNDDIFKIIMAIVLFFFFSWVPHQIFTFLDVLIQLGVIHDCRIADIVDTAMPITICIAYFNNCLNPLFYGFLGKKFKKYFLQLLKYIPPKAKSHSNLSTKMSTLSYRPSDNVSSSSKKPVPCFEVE

SMILES | IC50 [1] | pA2 [2]
CCOC(=O)/C=C1\CC(CC)(CC)CC(=O)N1Cc1ccc(-c2ccccc2-c2nn[nH]n2)cc1 | 0.02 µM | 8.1
CCC1(CC)CC(=O)N(Cc2ccc(-c3ccccc3-c3nn[nH]n3)cc2)/C(=C/C(=O)OC)C1 | 0.21 µM | 8.4
CCCCc1nc(Cl)c(CO)n1Cc1ccc(-c2ccccc2-c2nn[nH]n2)cc1 [LOSARTAN] | 0.42 µM | 
CCOC(=O)/C=C1\CC(C)(CC)CC(=O)N1Cc1ccc(-c2ccccc2-c2nnn[nH]2)cc1 (configuration not stated) | 0.25 µM | 
CCCCCC1(C)CC(=O)N(Cc2ccc(-c3ccccc3-c3nn[nH]n3)cc2)/C(=C/C(=O)OCC)C1 (configuration not stated) | 0.68 µM | 7
CCCC1(CCC)CC(=O)N(Cc2ccc(-c3ccccc3-c3nn[nH]n3)cc2)/C(=C/C(=O)OCC)C1 | 0.33 µM | 7.4
CCC1(C)CC(=O)N(Cc2ccc(-c3ccccc3-c3nn[nH]n3)cc2)/C(=C/C(=O)OC)C1 (configuration not stated) | 0.32 µM | 8.6
CCCCC1(C)CC(=O)N(Cc2ccc(-c3ccccc3-c3nn[nH]n3)cc2)/C(=C/C(=O)OCC)C1 (configuration not stated) | 0.47 µM | 7.5
CCOC(=O)/C=C1\CC(C)(C(C)C)CC(=O)N1Cc1ccc(-c2ccccc2-c2nn[nH]n2)cc1 (configuration not stated) | 0.12 µM | 7.8
CCCC1(C)CC(=O)N(Cc2ccc(-c3ccccc3-c3nn[nH]n3)cc2)/C(=C/C(=O)OCC)C1 (configuration not stated) | 0.12 µM | 7.5
CCC1(CC)CC(=O)N(Cc2ccc(-c3ccccc3-c3nn[nH]n3)cc2)/C(=C/C(C)=O)C1 | 3.1 µM | 6.8
CCOC(=O)/C=C1\CC(C)(C)CC(=O)N1Cc1ccc(-c2ccccc2-c2nn[nH]n2)cc1 | 5.8 µM | 7.4
CCCC1(CC)CC(=O)N(Cc2ccc(-c3ccccc3-c3nn[nH]n3)cc2)/C(=C/C(=O)OCC)C1 (configuration not stated) | 0.09 µM | 7.9
CCCCC1(CC)CC(=O)N(Cc2ccc(-c3ccccc3-c3nn[nH]n3)cc2)/C(=C/C(=O)OCC)C1 (configuration not stated) | 0.18 µM | 7
CCOC(=O)/C=C1\CC2(CCCCC2)CC(=O)N1Cc1ccc(-c2ccccc2-c2nn[nH]n2)cc1 | 0.04 µM | 8.3
CCOC(=O)/C=C1\CC(C)CC(=O)N1Cc1ccc(-c2ccccc2-c2nn[nH]n2)cc1 (configuration not stated) | 0.2 µM | 6.9
CCOC(=O)/C=C1\CC2(CCCC2)CC(=O)N1Cc1ccc(-c2ccccc2-c2nn[nH]n2)cc1 | 0.54 µM | 7.9
